Patent publication US9493438B2, “4,4-difluoro-piperidine-compounds” (ROTTAPHARM BIOTECH S.R.L., priority 2012, dated 2016)

Molecular target: T1, human OX1 receptors (Homo sapiens, UniProt O43613)
T1 construct: expressed in transfected cells; host or cells: CHO cells
T1 sequence (O43613 1-425): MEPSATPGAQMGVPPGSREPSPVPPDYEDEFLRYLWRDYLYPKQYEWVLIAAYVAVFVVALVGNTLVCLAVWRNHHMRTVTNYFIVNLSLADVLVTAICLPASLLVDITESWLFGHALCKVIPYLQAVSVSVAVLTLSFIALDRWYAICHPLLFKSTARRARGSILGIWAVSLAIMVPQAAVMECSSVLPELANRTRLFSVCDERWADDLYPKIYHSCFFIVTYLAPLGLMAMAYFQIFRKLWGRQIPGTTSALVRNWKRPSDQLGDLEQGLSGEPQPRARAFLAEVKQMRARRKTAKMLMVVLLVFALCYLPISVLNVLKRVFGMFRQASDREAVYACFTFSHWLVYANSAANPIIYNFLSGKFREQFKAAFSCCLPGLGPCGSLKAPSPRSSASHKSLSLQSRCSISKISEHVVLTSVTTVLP
Test: antagonistic activity against human OX1 receptor, [Ca2+]i fluorimetry in transfected CHO cells
Format: cell-based
Details: CHO cells transfected with human recombinant OX1; activated with orexin-A 3 nM; pKb = co-logarithm of apparent dissociation constant (modified Cheng Prusoff)
Protocol: Thus the plate was loaded with the calcium dye (Fluo-4NW/probenecid in HBSS, Hepes 20 mM, pH 7.4; Invitrogen) at 37° C. for 60 min. Afterward the temperature was equilibrated at 22° C. for 15 min and the [Ca2+]i measured directly on the plate by using a fluorescent plate reader (CeliLux Perkin Elmer).
Invention compounds were dissolved in DMSO, diluted in HBSS (DMSO, 0.3% final) and added to the wells. After 5 min CHO cells were activated with orexin-A, 3 nM while HEK-293 cells were activated with orexin-B, 10 nM. […] The antagonistic activity has been expressed as pKb (co-logarithm of the apparent dissociation constant calculated by using the modified Cheng Prusoff equation). The results are expressed as percent of control specific […] response ((measured specific response/control specific agonist response)×100) obtained in the presence of the test compounds.
The IC50 values (concentration causing a half-maximal inhibition of the control specific agonist response) were determinated by non-linear regression analysis of the concentration curves generated with mean replicate values using hill equation curve fitting. The IC50 values are obtained by the arithmetical mean of at least two experiments.

Cc1nc(C(=O)N2CCC(F)(F)CC2CNc2ccc(Cl)cn2)c(-c2ccccc2)s1 (racemic) [Compound 1, (RS)(2-(((5-chloropyridin-2-yl)amino)methyl)-4,4-difluoropiperidin-1-yl)(2-methyl-5-phenylthiazol-4-yl)methanone]
Kb: 10 nM

Cc1ccc(-n2nccn2)c(C(=O)N2CCC(F)(F)CC2CNc2ccc(C(F)(F)F)cn2)c1 (racemic) [Compound 5, (RS)(4,4-difluoro-2-(((5-(trifluoromethyl)pyridin-2-yl)amino)methyl)piperidin-1-yl)(5-methyl-2-(2H-1,2,3-triazol-2-yl)phenyl)methanone]
Kb: 5.01 nM

Cc1ccc(-c2ncccn2)c(C(=O)N2CCC(F)(F)CC2CNc2ccc(Cl)cn2)c1 (racemic) [Compound 6, (RS)(2-(((5-chloropyridin-2-yl)amino)methyl)-4,4-difluoropiperidin-1-yl)(5-methyl-2-(pyrimidin-2-yl)phenyl)methanone]
Kb: 5.01 nM

CCOc1ccccc1C(=O)N1CCC(F)(F)CC1CNc1ccc(Cl)cn1 (racemic) [Compound 10, (RS)(2-(((5-chloropyridin-2-yl)amino)methyl)-4,4-difluoropiperidin-1-yl)(2-ethoxyphenyl)methanone]
Kb: 7.94 nM

O=C(c1ccccc1OCC1CC1)N1CCC(F)(F)CC1CNc1ccc(Cl)cn1 (racemic) [Compound 12, (RS)(2-(((5-chloropyridin-2-yl)amino)methyl)-4,4-difluoropiperidin-1-yl)(2-(cyclopropylmethoxy)phenyl)methanone]
Kb: 2 nM

O=C(c1ccccc1OC1CCCC1)N1CCC(F)(F)CC1CNc1ccc(Cl)cn1 (racemic) [Compound 13, (RS)(2-(((5-chloropyridin-2-yl)amino)methyl)-4,4-difluoropiperidin-1-yl)(2-(cyclopentyloxy)phenyl)methanone]
Kb: 100 nM

Cc1ccc(-c2ncccn2)c(C(=O)N2CCC(F)(F)CC2CNc2ccc(Cl)cn2)n1 (racemic) [Compound 14, (RS)(2-(((5-chloropyridin-2-yl)amino)methyl)-4,4-difluoropiperidin-1-yl)(6-methyl-3-(pyrimidin-2-yl)pyridin-2-yl)methanone]
Kb: 2.51 nM

Cc1cnc(-c2ncccn2)c(C(=O)N2CCC(F)(F)CC2CNc2ccc(Cl)cn2)c1 (racemic) [Compound 15, (RS)(2-(((5-chloropyridin-2-yl)amino)methyl)-4,4-difluoropiperidin-1-yl)(5-methyl-2-(pyrimidin-2-yl)pyridin-3-yl)methanone]
Kb: 126 nM

O=C(c1cc(Cl)ccc1-c1ncccn1)N1CCC(F)(F)CC1CNc1ccc(Cl)cn1 (racemic) [Compound 19, (RS)(5-chloro-2-(pyrimidin-2-yl)phenyl)(2-(((5-chloropyridin-2-yl)amino)methyl)-4,4-difluoropiperidin-1-yl)methanone]
Kb: 5.01 nM

O=C(c1ccccc1OCc1ccccc1)N1CCC(F)(F)CC1CNc1ccc(Cl)cn1 (racemic) [Compound 21, (RS)(2-(benzyloxy)phenyl)(2-(((5-chloropyridin-2-yl)amino)methyl)-4,4-difluoropiperidin-1-yl)methanone]
Kb: 5.01 nM

O=C(c1nccc2ccccc12)N1CCC(F)(F)CC1CNc1ccc(Cl)cn1 (racemic) [Compound 22, (RS)(2-(((5-chloropyridin-2-yl)amino)methyl)-4,4-difluoropiperidin-1-yl)(isoquinolin-1-yl)methanone]
Kb: 0.631 nM

O=C(c1ccncc1-c1ncccn1)N1CCC(F)(F)CC1CNc1ccc(Cl)cn1 (racemic) [Compound 28, (RS)(2-(((5-chloropyridin-2-yl)amino)methyl)-4,4-difluoropiperidin-1-yl)(3-(pyrimidin-2-yl)pyridin-4-yl)methanone]
Kb: 15.8 nM

Cc1ccc(-c2ncccn2)c(C(=O)N2CCC(F)(F)CC2CNc2ccc(C#N)cn2)n1 (racemic) [Compound 29]
Kb: 15.8 nM

Cc1ncc(-c2ccc(F)cc2C(=O)N2CCC(F)(F)CC2CNc2ccc(C(F)(F)F)cn2)cn1 (racemic) [Compound 30, (RS)(4,4-difluoro-2-(((5-(trifluoromethyl)pyridin-2-yl)amino)methyl)piperidin-1-yl)(5-fluoro-2-(2-methylpyrimidin-5-yl)phenyl)methanone]
Kb: 25.1 nM

O=C(c1nccc2ccccc12)N1CCC(F)(F)CC1CNc1ncc(C(F)(F)F)cc1F (racemic) [Compound 33, (RS)(4,4-difluoro-2-(((3-fluoro-5-(trifluoromethyl)pyridin-2-yl)amino)methyl)piperidin-1-yl)(isoquinolin-1-yl)methanone]
Kb: 2 nM

O=C(c1nccc2ccccc12)N1CCC(F)(F)CC1CNc1ccc(C(F)(F)F)cn1 (racemic) [Compound 34, (RS)(4,4-difluoro-2-(((5-(trifluoromethyl)pyridin-2-yl)amino)methyl)piperidin-1-yl)(isoquinolin-1-yl)methanone]
Kb: 2.51 nM

O=C(c1ccnc2ccccc12)N1CCC(F)(F)CC1CNc1ccc(C(F)(F)F)cn1 (racemic) [Compound 35]
Kb: 31.6 nM

Cc1ccc(-c2ncccn2)c(C(=O)N2CCC(F)(F)CC2COc2ccc(C(F)(F)F)cn2)n1 (racemic) [Compound 48, (±)(4,4-difluoro-2-(((5-(trifluoromethyl)pyridine-2-yl)oxy)methyl)piperidin-1-yl)(6-methyl-3-(pyrimidin-2-yl)pyridin-2-yl)methanone]
Kb: 7.94 nM

Cc1ccc(-c2cccnc2)c(C(=O)N2CCC(F)(F)CC2CNc2ccc(C(F)(F)F)cn2)n1 (racemic) [Compound 50]
Kb: 5.01 nM

Cc1ccc(-c2ccncc2)c(C(=O)N2CCC(F)(F)CC2CNc2ccc(C(F)(F)F)cn2)n1 (racemic) [Compound 52, (RS) (4,4-difluoro-2-(((5-(trifluoromethyl)pyridin-2-yl)amino)methyl)piperidin-1-yl)(6-methyl-[3,4′-bipyridin]-2-yl)methanone]
Kb: 39.8 nM

O=C(c1ncccc1-c1ncccn1)N1CCC(F)(F)CC1CNc1ccc(C(F)(F)F)cn1 (racemic) [Compound 54, (RS) (4,4-difluoro-2-(((5-(trifluoromethyl)pyridin-2-yl)amino)methyl)piperidin-1-yl)(3-(pyrimidin-2-yl)pyridin-2-yl)methanone]
Kb: 3.16 nM

Cc1nc(C(=O)N2CCC(F)(F)CC2CNc2ccc(Cl)cn2)c(-c2ccccc2)s1 (single isomer, unassigned; isomer a) [Compound 2, (2-(((5-chloropyridin-2-yl)amino)methyl)-4,4-difluoropiperidin-1-yl)(2-methyl-5-phenylthiazol-4-yl)methanone (isomer A)]
Kb: 2 nM

Cc1ccc(-c2ncccn2)c(C(=O)N2CCC(F)(F)CC2CNc2ccc(Cl)cn2)c1 (single isomer, unassigned; isomer a) [Compound 7, (2-(((5-chloropyridin-2-yl)amino)methyl)-4,4-difluoropiperidin-1-yl)(5-methyl-2-(pyrimidin-2-yl)phenyl)methanone (isomer A)]
Kb: 2.51 nM

Cc1ccc(-n2nccn2)c(C(=O)N2CCC(F)(F)CC2CNc2ccc(Cl)cn2)n1 (single isomer, unassigned; isomer a) [Compound 8, (2-(((5-chloropyridin-2-yl)amino)methyl)-4,4-difluoropiperidin-1-yl)(6-methyl-3-(2H-1,2,3-triazol-2-yl)pyridin-2-yl)methanone (isomer A)]
Kb: 1.58 nM

O=C(c1nccc2ccccc12)N1CCC(F)(F)CC1CNc1ccc(Cl)cn1 (single isomer, unassigned; isomer a) [Compound 23, (2-(((5-chloropyridin-2-yl)amino)methyl)-4,4-difluoropiperidin-1-yl)(isoquinolin-1-yl)methanone (isomer A)]
Kb: 79.4 nM

Cc1ccc(-c2ccccc2)c(C(=O)N2CCC(F)(F)CC2CNc2ccc(C(F)(F)F)cn2)n1 (single isomer, unassigned; isomer a) [Compound 37, (4,4-difluoro-2-(((5-(trifluoromethyl)pyridin-2-yl)amino)methyl)piperidin-1-yl)(6-methyl-3-phenylpyridin-2-yl)methanone (isomer A)]
Kb: 200 nM

O=C(c1nc(C(F)(F)F)ccc1-c1ncccn1)N1CCC(F)(F)CC1CNc1ccc(C(F)(F)F)cn1 (single isomer, unassigned; isomer a) [Compound 40, (4,4-difluoro-2-(((5-(trifluoromethyl)pyridin-2-yl)amino)methyl)piperidin-1-yl)(3-(pyrimidin-2-yl)-6-(trifluoromethyl)pyridin-2-yl)methanone (isomer A)]
Kb: 63.1 nM
